11 molecules from US20090054376A1, “BENZOFURAN DERIVATIVES WITH THERAPEUTIC ACTIVITIES” (Pharmos Corporation, priority 2005, published 2009) can be followed below.

The subject of data set [1] is CB1 related cannabimimetic activity. The data set is described as follows: Safety: body temperature, catalepsy, spontaneous locomotor activity, elevated plus maze, sensitivity to touch. It is filed as in vivo, ICR male mice. The settings on record: for adverse cannabimimetic activities in any of the parameters monitored: 2 mg/kg i.v. As for the experimental part:
In the present study, impact of compounds of the invention on the central nervous system was measured by monitoring the body temperature, catalepsy and spontaneous locomotor activity of rodents. These activities are part of the Tetrad assays which are indicative, if all parameters are affected, of CB1 mediated activity. In addition, lack of CNS psychomimetic effect was assessed in the elevated plus maze model. Finally, sensitivity to touch was determined in order to evaluate peripheral CB1 related activity.
ICR male mice (average body weight 25 g, Harlan, Israel) were administered the compounds of the invention i.v. at a dose of 2 mg/kg and at a volume dose of 5 ml/kg. The psychoactive cannabinoid HU-210 was used as positive control at the 100-fold lower dose of 0.02 mg/kg i.v. The following measurements were made starting 15 minutes after compound administration. All tests were completed for each animal within approximately 10 minutes. Rectal temperature was monitored using a thermistor probe (YSI model 400, USA). Spontaneous locomotion was assessed using the open field methodology. The number of squares crossed by the animals were recorded and analyzed during a period of three minutes. At the end of the open field test, the animals were tested for catalepsy symptoms. This was carried out by gently forcing the animal to stand on its hind paws when its front paws are holding on an elevated beam. The time for the animal to step down of the beam was measured in seconds. A normal animal withdraws the beam immediately whereas cataleptic animal tend to stay on the beam. The longer the animal stays leaning on the beam, the more cataleptic the animal is. The behavior of the animals was then assessed in the elevated plus maze. The elevated plus maze consists of two open arms and two arms that are enclosed by high walls (arms 30×10 cm, wall height 20 cm). The elevated plus maze is usually elevated 80 cm above the floor. The mouse is placed on the maze head facing an open arm, and the time spent in the different compartments of the maze (open arms, closed arms and central area) are measured for the next 5 minutes. Results are expressed as percent of the time spent in the open arms, normal animals preferring to stay in the closed arms of the maze. Finally, animals were gently touched by an observer blinded for the treatment group and their sensitivity scored according to the following scale: 0 not sensitive, 1 sensitive and 2 highly sensitive. Results are expressed as average±SEM. At the end of the study, the animals were euthanized.

Data set [2] concerns the target T1, Human CB1 Receptor (Homo sapiens, UniProt P21554).
T1 construct: expressed in transfected cells; host or cells: HEK-293 cells (membranes)
The data set is described as follows: [35S]GTPγS-binding assay, hCB1. The format is biochemical. The note with it: NB = no binding; for Emax: upper plateau of curve. The procedure: (§1) Functional activity of compounds of the invention toward the cannabinoid receptors was determined by stimulation of [^35S]-GTPγS binding using membranes from HEK-293 cells expressing the hCB1 receptor and membranes expressing the hCB2 receptor derived from either Sf9 (PerkinElmer) or from HEK-293 cells. Activities were compared to that of the known cannabinoid full agonist CP55940 (Alexis). The purpose of this experiment is to determine the potency of the compounds of the invention as agonists or antagonists toward each of the receptor tested.
(§2) [^35S]-GTPγS binding reactions were performed at 30° C. in 96-well plates containing 5-10 μg membrane protein suspended in 0.1 ml binding buffer [20 mM HEPES-NaOH, pH 7.4, 5 mM MgCl2, 100 mM NaCl, 0.2% (w/v) bovine serum albumin] supplemented with 50 μM GDP and 0.06 nM-10 μM of the compound being tested. Binding was initiated by the addition of [^35S]GTPγS (0.3 nM final concentration). Incubations were performed for 90 minutes and were terminated by filtration on GF/C filter plates (PerkinEimer). Filters were washed ten times with ice-cold wash buffer (20 mM HEPES-NaOH, pH 7.4, 10 mM sodium pyrophosphate). Non-specific binding was measured in the presence of 15 μM GTPγS.
(§3) Assays were performed in duplicates. Data was analyzed by plotting on the X axis the log concentration against percent of specific [^35S]GTPγS binding out of basal [^35S]GTPγS binding on the Y axis, non-linear regression is then performed using GraphPad Prism, version 3.0 (GraphPad, San Diego, Calif.) to calculate the EC50 and Emax of the compound. The EC50 value represents the concentration at which there is 50% [^35S]GTPγS binding and the Emax value the upper plateau of the curve.
(In general: GTPγS is a poorly hydrolysed GTP analogue; its binding reports G protein activation.)

In data set [3] the target is T2, Human CB2 Receptor (Homo sapiens, UniProt P34972).
T2 construct: host or cells: Sf9 or HEK-293 cells (membranes)
The data set is described as follows: [35S]GTPγS-binding assay, hCB2. The format is biochemical. The note with it: GTPγS; for agonistic activity toward cannabinoid receptors (in words): hCB1 and hCB2. The procedure: as §1, §2, §3

Data set [4] has as its system visceral pain writhing responses. The data set is described as follows: Visceral pain, acetic acid induced writhing responses. The format is in vivo, Male ICR mice. The note with it: Mus musculus, iv, single dose 2 mg/kg i.v., compared to untreated group; read-out: Percent Inhibition of Visceral Pain Writhing Responses. As for the experimental part:
Male ICR mice (average body weight 25 g, Harlan, Israel) were pretreated by i.v. injection at volume dose of 5 ml/kg of vehicle, control and test compounds at various doses. Other routes of administration were tested for selected compounds including i.m. or s.c. injections at volume dose of 2.5 ml/kg and p.o. gavage at volume dose of 5 ml/kg. Compounds were dissolved in CREMOPHOR®:Ethanol and diluted 1:20 in saline prior to injection or gavage. Compounds administered i.v. were injected fifteen minutes before pain induction, whereas compounds administered i.m., s.c. or p.o. were supplied thirty minutes before pain induction, unless otherwise indicated. Each treatment group, except for controls comprising at least 30 animals, was composed of at least 6 animals. Fifteen or thirty minutes after drug administration, depending on the route of administration, the mice were injected i.p. with 10 ml/kg of 0.6% acetic acid and the number of visceral pain related behaviors (writhing movements globally defined as WR, i.e. stretching, contractions of the abdomen accompanied by an elongation of the body and extension of the hind limbs) was counted over a period of 5 minutes, starting 5 minutes after the acetic acid administration. These visceral pain related behaviors were globally defined as writhing responses (WR). The results are expressed as mean number of writhing responses ±SEM. Data were analyzed using analysis of variance (ANOVA) followed by post-hoc Fisher test.
(In writhing tests, fewer writhes than in controls are read as antinociception.)

The test system of data set [5] is carrageenan induced inflammatory pain and paw edema. Description: Inflammatory pain and paw edema induced by carrageenan. It is filed as in vivo, Male Sprague Dawley rats. The settings on record: Rattus norvegicus, ip; 10 mg/kg i.p., 3 hours after carrageenan, reduction in paw swelling; read-out: Percent Inhibition of Inflammatory Pain Responses, Edema. The procedure: Male Sprague Dawley rats (average body weight 200 g, Harlan, Israel) were transiently sedated by placement on dry ice for the duration of the injections. Rats were injected subcutaneously, in the subplantar region of one (right) paw with 0.1 ml of 2% w/v λ Carrageenan in sterile saline. […] Test compounds were, unless otherwise stated, administered i.p. at initial single dose of 3, 10 or 20 mg/kg, and volume dose of 5 ml/kg, immediately after the carrageenan injection. Selected compounds were also tested p.o. following oral gavage. Vehicle and celecoxib treated animals were used as controls. Each treatment group comprised at least seven animals.
Before induction of inflammatory pain and three hours after injection, the animals reactions to pain stimuli were tested in two systems. The first stimulus was thermal and assessed by the Plantar Test according to Hargreaves, using Ugo Basile Model 7370. The scale was set to an intensity of 50 arbitrary units. The latency time till the animal lift a paw as a reaction to the thermal stimulus was recorded for both the inflamed and non-inflamed hind paws. The second stimulus was mechanical (tactile) and assessed using a Dynamic Plantar Sesthesiomether (Ugo Basile Model 73400-002). […] Finally, the impact on paw edema was assessed. Paw thickness was measured using a dial thickness gauge (Spring-dial, constant low pressure gauge, Mitutoyo, TG/L-1, 0.01 mm) and paw volume was measured using a plethysmometer (model #7150, Ugo Basile, Italy). At the end of the study, animals were euthanized.
The results are measured as the differences between the two hind paws at time 0 and 3 hours both as ALT, for the latency time in the thermal part of the study, and as ΔForce, for the mechanical part of the study. The paw volume is expressed as percent from vehicle treated animals. Results are expressed as mean±SEM for each treatment group and the differences among those groups are analyzed by analysis of variance (ANOVA) followed by post-hoc Tukey's test.
Results refer to i.p. treatment with 10 mg/kg. Results marked with one asterisk refer to a dose 3 mg/kg, whereas two asterisks refer to 20 mg/kg. Celecoxib is included as reference.

[6] abbreviates: Human CB2 Receptor, NB = no binding.
[7] abbreviates: Human CB2 Receptor, upper plateau of curve, NB = no binding.

The term EC50 denotes the concentration at which the effect is half-maximal. As usually defined, the Emax is the size of the effect at its maximum, as opposed to the concentration needed.

T2 sequence (P34972 whole entry): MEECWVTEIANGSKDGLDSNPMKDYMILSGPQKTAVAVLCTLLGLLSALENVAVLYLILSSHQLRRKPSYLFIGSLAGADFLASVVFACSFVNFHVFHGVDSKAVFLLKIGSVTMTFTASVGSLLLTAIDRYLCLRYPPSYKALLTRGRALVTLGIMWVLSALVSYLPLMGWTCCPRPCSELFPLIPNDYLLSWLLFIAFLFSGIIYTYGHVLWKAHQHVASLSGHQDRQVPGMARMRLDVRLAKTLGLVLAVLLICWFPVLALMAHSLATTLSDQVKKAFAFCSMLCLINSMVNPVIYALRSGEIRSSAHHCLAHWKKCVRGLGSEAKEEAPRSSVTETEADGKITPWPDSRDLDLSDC
T1 sequence (P21554 whole entry): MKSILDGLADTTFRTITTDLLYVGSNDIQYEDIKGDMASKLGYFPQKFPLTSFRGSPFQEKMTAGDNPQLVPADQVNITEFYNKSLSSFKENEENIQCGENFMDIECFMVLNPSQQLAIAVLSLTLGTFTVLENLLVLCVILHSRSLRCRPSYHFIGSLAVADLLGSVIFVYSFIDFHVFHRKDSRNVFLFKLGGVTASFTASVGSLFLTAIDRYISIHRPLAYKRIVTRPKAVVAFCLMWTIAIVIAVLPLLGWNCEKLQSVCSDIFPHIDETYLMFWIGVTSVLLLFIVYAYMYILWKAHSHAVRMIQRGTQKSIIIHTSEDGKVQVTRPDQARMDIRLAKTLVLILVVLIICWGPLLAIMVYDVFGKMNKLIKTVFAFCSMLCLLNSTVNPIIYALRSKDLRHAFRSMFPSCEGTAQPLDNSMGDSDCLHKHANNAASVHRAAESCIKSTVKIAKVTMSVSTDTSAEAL

Consider `CCCCCCC(C)(C)c1cc(O)c2c(c1)OC(C)(C)[C@@H]1CC=C(CO)C[C@@H]21` [HU-210, reference compound], for which the less squares crossed result in data set [1] (0.02 mg/kg i.v.) was “more than 50%”. In addition, the “number of squares crossed (spontaneous locomotor activity)” value in data set [1] (0.02 mg/kg i.v., period of three minutes, vehicle 75.63±6.24) is reported as 32.33±10.21. Moreover, in data set [1] (0.02 mg/kg i.v., statistically significant), the “drop of rectal temperature” value is “about 2 °C”. Further, the “sensitivity to touch, average score” value in data set [1] (0.02 mg/kg i.v., scale 0 not sensitive, 1 sensitive, 2 highly sensitive) is reported as “above 1”. For the same molecule, the rectal temperature in data set [1] (0.02 mg/kg i.v., vehicle 38.88±0.11° C.) amounted to 36.73±0.29 °C. Also, in data set [1] (0.02 mg/kg i.v., vehicle about 15%), the “time spent in the open arms of the elevated plus maze” value is roughly 41%.
For the molecule `CC1(C)CCC2c3c(O)cc(C4(CCc5ccccc5)SCCS4)cc3OC2C1` (stereo not shown) [Compound C6S-38, 7,7-dimethyl-3-(2-phenethyl-[1,3]dithiolan-2-yl)-5a,6,7,8,9,9a-hexahydro-dibenzofuran-1-ol], the values for the EC50 in data set [2] and in data set [3] (setting [6]) were greater than 10000 nM and 184 nM, respectively. In data set [3] (setting [7]), this molecule yielded a maximum response (Emax) of 19%.
Consider `CCCCCCC(C)(C)c1cc(OCC(=O)N(CC)CC)c2c(c1)OC1C(O)CCCCC21` (stereo not shown) [Compound C7S-17, 2-[2-(1,1-Dimethylheptyl)-9-hydroxy-5,6,7,8,9,9a-hexahydro-4bH-10-oxa-benzo[ ]azulen-4-yloxy]-N,N-diethyl-acetamide], for which the rectal temperature in data set [1] (40 mg/kg i.v., 0.5 hr after injection) is 37.84±0.62 °C. Besides, the “rectal temperature below controls” value in data set [1] (40 mg/kg i.v., 0.5 hr after injection, not statistically significant) was “about 0.9 °C”. Besides, in data set [1] (40 mg/kg i.v., three hours after injection), the “rectal temperature (in words)” value is “back to baseline”.
`CCCCCCC(C)(C)c1cc(OC(=O)C=CC(=O)O)c2c(c1)OC1CC(C)(C)CCC21` (stereo not shown) [Compound C6S-37, But-2-enedioic acid mono-[3-(1,1-dimethylheptyl)-7,7-dimethyl-5a,6,7,8,9,9a-hexahydro-dibenzofuran-1-yl]ester]: the EC50 was found to be 3970 nM in data set [2] and 24 nM in data set [3] (setting [6]). For the same molecule, the Emax worked out at 102% in data set [2] and 44% in data set [3] (setting [7]). The “agonistic activity toward cannabinoid receptors (in words)” value in data set [3] is reported as “agonists specific toward the CB2 receptor”.
With `CCCCCCC(C)(C)c1cc(O)c2c(c1)OC1C(O)CCCCC21` (single isomer, unassigned) [Compound C7S-30, 2-(,1-dimethylheptyl)-5,6,7,8,9,9a-hexahydro-4bH-10-oxa-benzo[α]azulen-4,9-diol], the EC50 in data set [2] was greater than 10000 nM; in data set [3] (setting [6]), 1030 nM. Besides, the “Emax (%)” value in data set [3] (setting [7]) was found to be 66%.
For `CCCCCCC(C)(C)c1cc(O)c2c(c1)OC1C2CCC(C)(C)C1O` (stereo not shown) [Compound C6S-8, 3-(1,1-dimethylheptyl)-7,7-dimethyl-5a,6,7,8,9,9a-hexahydro-dibenzofuran-1,6-diol], the inhibition in vivo at 2 mg/kg in data set [4] was 37%. In data set [1], the “adverse cannabimimetic activities in any of the parameters monitored” value was “None”.
On to `CCCCCCC(C)(C)c1cc(O)c2c(c1)OC1C(=NO)CCCC21` (stereo not shown) [Compound C6S-27, 7-(1,1-Dimethylheptyl)-9-hydroxy-2,3,4a,9b-tetrahydro-1H-dibenzofuran-4-one oxime], for which the 50% effective concentration (EC50) in data set [2] was greater than 10000 nM; in data set [3] (setting [6]), 5560 nM. The Emax in data set [3] (setting [7]) amounted to 64%.
For `CCCCCCC(C)(C)c1cc(O)c2c(c1)OC1CCCCC(C(=O)O)C21` (stereo not drawn) [Compound C7S-31, 2-(1,1-Dimethylheptyl)-4-hydroxy-5,6,7,8,9,9a-hexahydro-4bH-10-oxa-benzo[α]azulen-5-carboxylic acid], the results for the EC50 in data set [2] and in data set [3] (setting [6]) were greater than 10000 nM and 641 nM, respectively. The molecule further had an Emax in data set [3] (setting [7]) of 54%.
In the case of `CCCCCCC(C)(C)c1cc(O)c2c3c(oc2c1)CC(C)(C)CC3` [Compound C6M-10, 3-(1,1-Dimethylheptyl)-7,7-dimethyl-6,7,8,9-tetrahydro-dibenzofuran-1-ol], the half-maximal effective concentration (EC50) in data set [2] worked out at 5300 nM; in data set [3] (setting [6]) it was 25 nM. The maximal response (Emax) in data set [2] was 132%; in data set [3] (setting [7]), 72%. Moreover, the “agonistic activity toward cannabinoid receptors (in words)” value in data set [3] is given as “agonists specific toward the CB2 receptor”.
Take `CCCCCCC(C)(C)c1cc(OC)cc2oc3c(c12)CC(C)(C)CC3=O` [Compound C6M-7, 9-(1,1-dimethylheptyl)-7-methoxy-2,2-dimethyl-2,3-dihydro-1H-dibenzofuran-4-one]: the “adverse cannabimimetic activities in any of the parameters monitored” value in data set [1] is recorded as “None”. For the same molecule, the inhibition in vivo at 10 mg/kg in data set [5] worked out at 26%.
Regarding `CCCCCCC(C)(C)c1ccc([C@@H]2C[C@H](O)CC[C@H]2CCCO)c(O)c1` [CP55940, reference compound], the figures for the maximal response (Emax) in data set [2] and in data set [3] (setting [7]) were 50 to 100% and 30 to 60%, respectively.
